Laboratory results taken from patent US20150366998A1, “ORAL DELIVERY OF DRUG ACTIVES IN LABORATORY ANIMALS USING FAST-DISSOLVING ORAL FILMS” (priority 2014, published 2015).
Entries after “also recorded” stand apart in the source; their conditions may differ.

Columns and labels:
female WT mice = assay: 24-h two-bottle choice paradigm, 10% ethanol in water (10E) vs water, IVM oral thin film or gavage; assay type: in vivo
[1] = 30-day oral film study: body weight, food intake, organ weight to tibia length ratio, tolerability; assay type: in vivo, mice
From the text: In this study, there were 4 groups.
IVM was given for 30 days, 5 times per week for 6 weeks. […] After being presented with the tip of the gavage needle, mice would self-administer the oral films.
Ethanol intake was expressed as g/kg/24-h and summarized using means±SEM across groups. A two-way ANOVA was used to analyze 10E intake between the 4 groups over the 30 days of treatment. A one-way ANOVA was used to compare mean 10E intake, 10E preference, water intake, fluid intake, food intake, mouse weight, and organ weight/tibia length ratio across the 4 groups. GraphPAD Prism software (San Diego, Calif.) was used for data analysis.

mice = settings: cited from earlier work
[2] = IVM 0.21 mg oral thin film, 30 days, vs control and placebo groups
[3] = doses needed to produce the anti-alcohol effects (Bortolato 2013)

Q: For `CC[C@H](C)[C@H]1O[C@]2(CC[C@@H]1C)C[C@@H]1C[C@@H](C/C=C(\C)[C@@H](O[C@H]3C[C@H](OC)[C@@H](O[C@H]4C[C@H](OC)[C@@H](O)[C@H](C)O4)[C@H](C)O3)[C@@H](C)/C=C/C=C3\CO[C@@H]4[C@H](O)C(C)=C[C@@H](C(=O)O1)[C@]34O)O2` [IVM, ivermectin], which “10E (alcohol) intake” value (female WT mice; IVM 0.21 mg oral thin film, 30 days, 5 times per week for 6 weeks, vs no action and placebo film) is on record?
A: drank consistently less 10E; also recorded: effective in reducing 10E intake; also recorded: significantly reduces

Q: And the 10E preference (female WT mice; [2])?
A: significantly less; also recorded: significantly reduces

Q: What about the total fluid intake (female WT mice; [2]) of the same compound?
A: similar; also recorded: without significantly affecting

Q: And the “decrease of 10E intake compared to baseline” value (female WT mice; IVM 0.21 mg via fast dissolving oral film, 24-h two bottle choice, female WT mice, n=8, p<0.001 vs baseline)?
A: approximately 40%

Q: What about the 10E intake (female WT mice; IVM 5 mg/kg, oral gavage (placebo gavage corn oil)) of the same compound?
A: decreased 10E intake

Q: And the “organ weight to tibia length ratio” value ([1]; IVM 0.21 mg oral thin film, 30 days, 6 organs analyzed, vs control and placebo groups)?
A: no significant difference; also recorded: without significantly affecting

Q: What about the “animal weight gain / change in body weight” value ([1]; IVM 0.21 mg oral thin film, 30 days, vs no action and placebo) of the same compound?
A: similar; also recorded: without significantly affecting

Q: And the “tolerability / overt signs of toxicity” value ([1]; chronic (30 day) oral administration of IVM via oral film)?
A: well tolerated; also recorded: without causing overt signs of toxicity

Q: And the “rewarding properties (addiction liability)” value (mice; IVM regimen producing anti-alcohol effects)?
A: did not exert rewarding properties

Q: What about the “ethanol intake in mice” value (mice; acute and 7 day administration (Yardley 2012)) of the same compound?
A: significantly reduce

Q: What about the anxiolytic-like effects (mice; [3]) of the same compound?
A: elicited anxiolytic-like effects

Q: And the “overt signs of toxicity” value (mice; [3])?
A: did not induce overt signs of toxicity
